According to paper PMC5059921, “Chalepin: isolated from Ruta angustifolia L. Pers induces mitochondrial mediated apoptosis in lung carcinoma cells” (BMC Complementary and Alternative Medicine, 2016):

Tests used:
A549 cells [1] = test: Western blot analysis of apoptotic proteins; assay type: cell-based, human
A549 cells [2] = test: Intracellular ROS measurement (DCFH-DA); assay type: cell-based, human; conditions: A549, 45 μg/ml, 6 h incubation
Protocol: The assay was conducted as described by Ling et al. with some minor modifications. The ROS measurement was done using the fluorescent probe 2’,7’-dichlorofluorescein diacetate (DCFH-DA) that enabled the monitoring of intracellular accumulation of ROS. The A549 cells were seeded into a 96 well plate with a density of 2×10^4 cells per well and allowed to attach overnight. Treatment with chalepin at various concentrations were done the next day and incubated for different time periods. At the end of the incubation period, the media was removed and 5 μM of DCFH-DA which is diluted in media was added to the cells and incubated for 40 min at 37 °C. The cells were then washed three times with clear media and the fluorescence intensity (excitation = 485 nm and emission = 530 nm) was measured using a microplate reader. The morphology of the cells were observed using a fluorescence microscope.

caspase 3 in A549 cells = test: Caspase-3 activity (CaspILLUME, flow cytometry); assay type: cell-based, human; conditions: for active caspase 3, V1-R (apoptotic population): 45 ug/ml; for fold increase of caspase 3 activity vs untreated control: 45 μg/ml
Protocol: Caspase activity assays were performed according to the instructions in the manual (CaspILLUME, Genetex). Cells were seeded at a density of 1×10^6 cells per culture dish. After being subjected to treatment for 48 and 72 h, the cells were detached with accutase, washed, and resuspended in PBS. Next, 300 μL of each sample was aliquoted into centrifuge tubes, after which 1 μL of fluorescent substrate (FITC-DEVD-FMK for caspase 3 and FITC-LEHD-FMK for caspase 9 activity) was added to each tube and incubated for 1 h at 37°C incubator. At the end of the incubation period, the cells were centrifuged at 3000 rpm for 5 min and the supernatant was removed. After that, the cells were resuspended in 0.5 mL wash buffer (provided in the kit) and centrifuged at 3000 rpm for 5 min. This step was repeated before performing the analysis with flow cytometer (Accuri C6) and a minimum of 10,000 events were acquired for each replicate.

[3] = tested on: hepatitis C virus, hepatoma cell line (Huh7.5); set-up: method as in PMID 25454460; conditions: cited from earlier work
A549 cells [4] = test: Apoptosis detection by Annexin V-FITC/PI staining (flow cytometry); assay type: cell-based, human; conditions: incubation time not stated
Protocol: FITC annexin V apoptosis detection kit (BD) was used to detect apoptosis. Cells were seeded in tissue culture dishes (5000-7000 cells/dish) and allowed to adhere overnight. Next, the cells were treated with various concentrations of chalepin for 48 and 72 h. The cells were harvested, washed, and resuspended in 1x binding buffer according to the manual provided in the kit. In the next step, the cells were stained in the ratio of per 100,000 cells; staining of cells with 5 μL of FITC-annexin V and 5 μL of propidium iodide was done for 15 min. Then, 200 μL of 1× binding buffer was added to each sample. Unstained and single-stained untreated cells were also included as controls. A minimum number of 10,000 events was acquired for each replicate using Accuri C6 flow cytometer. A quadrant statistic was used to measure the population of viable, early apoptotic, late apoptotic and secondary necrotic cells. The determination betweent these different populations were obtained by estimating quantitatively the cells that were AnnexinV/PI stained.

A549 cells [5] = test: DNA fragmentation by APO-BrdU TUNEL assay; assay type: cell-based, human
Protocol: DNA strand breaks in apoptotic cells caused by the activation of endonucleases, were detected by APO-BrdU TUNEL assay kit. After incubation with various concentrations of chalepin at 48 and 72 h, cells were harvested and washed with PBS. Next, the cells were fixed with 1 % (w/v) paraformaldehyde for 15 mins, then washed with PBS, and fixed with 70 % (v/v) ethanol overnight. Ethanol was removed by centrifugation and DNA labeling steps were performed according to the manual provided in the kit. Samples were analyzed by flow cytometer and a minimum of 10,000 events were acquired for each replicate.

[6] = A549, 36 μg/ml, 2,4,8,12 and 24 h

C=CC(C)(C)c1cc2cc3c(cc2oc1=O)O[C@H](C(C)(C)O)C3 [Chalepin, chalepin]
Procaspase 3 (A549 cells [1]; [6]): downregulation | Procaspase 9 (A549 cells [1]; [6]): downregulation | anti-apoptotic gene products Bcl-2, survivin, XIAP, Bcl-xl and cFLIP (A549 cells [1]; [6]): downregulate | cleaved caspase 3 (A549 cells [1]; [6]): upregulation | expression of Bax (A549 cells [1]; [6]): upregulation | expression of cytochrome c (A549 cells [1]; [6]): upregulation | expression of p53 (A549 cells [1]; [6]): upregulation | quantity of PARP expressed (A549 cells [1]; [6]): decreased with time | Bak (A549 cells [1]; A549, 36 μg/ml, time dependently): upregulated | ROS fold increase vs untreated control (A549 cells [2]): 62.24 fold | active caspase 3, V1-R (apoptotic population) (caspase 3 in A549 cells; A549, 48 h): 26.40 ± 0.79% | fold increase of caspase 3 activity vs untreated control (caspase 3 in A549 cells; A549, 48 h): 9.32 fold | active caspase 3, V1-R (apoptotic population) (caspase 3 in A549 cells; A549, 72 h): 49.07 ± 0.63% | fold increase of caspase 3 activity vs untreated control (caspase 3 in A549 cells; A549, 72 h): 8.71 fold | replication of hepatitis C virus [3]: stop the replication | Annexin V positive cells (early and late apoptotic) (A549 cells [4]; A549, 9 μg/ml): 7.27 ± 0.16% | Annexin V positive cells (early and late apoptotic) (A549 cells [4]; A549, 45 μg/ml): 20.6 ± 0.53% | DNA fragmentation, R3 (TUNEL positive cells) (A549 cells [5]; A549, 48 h, 45 μg/ml): 38.5 ± 0.70% | DNA fragmentation, R3 (TUNEL positive cells) (A549 cells [5]; A549, 72 h, 36 μg/ml): 73.50 ± 0.20% | DNA fragmentation, R3 (TUNEL positive cells) (A549 cells [5]; A549, 72 h, 45 μg/ml): 66.50 ± 0.29%
